In patent US6630343B1, “Hepatitis C virus culture system” (priority 1999, dated 2003):
Starred links: 1 amine or outer side, 2 acyl side, 3 side chain; linkers in the order of their positions; H or OH if unused. Positions of bridges follow the written chain, without caps; N, C: chain ends. Non-standard residues stand in square brackets, D forms with d. Residues, ends and D or L forms follow the SMILES beside them. Chains are numbered I, II in the order given. Actinocin(9to1) = Cc1c2oc3c(C)ccc(C(=O)[*:1])c3nc-2c(C(=O)[*:2])c(N)c1=O; NMeV = CN[C@H](C(=O)O)C(C)C; Sar = CNCC(=O)O

Tests used:
[1] = test system: Huh 7 cell clones 9-13 and 8-1; assay: [3H] uridine labeling of RNA in the presence of dactinomycin: cellular RNA synthesis; assay type: cell-based, human; conditions: 4 μg/ml dactinomycin, 16 hrs
Experimental: (§1) To confirm this assumption, cells were incubated with [^3H] uridine in the presence of dactinomycin, the radioactively labeled RNAs were extracted, separated by means of denaturing agarose gel electrophoresis and analyzed with the aid of a common Bio-Imager using a [^3H]-sensitive screen. For this purpose approx. 5×10^5 cells of the clones 9-13 and 8-1 were incubated at a time with 100 μCi [^3H] uridine for 16 hrs. in the absence (−) or presence (+) of 4 μg/ml of dactinomycin (Dact). Following this labeling reaction the total RNA was prepared and analyzed by means of formaldehyde-agarose gel electrophoresis. Only 1/10 of the total RNA is illustrated in the first two lanes. The radioactively labeled RNA was visualized using a BAS-2500 Bio-Imager (Fuji).

[2] = test system: HCV RNA; assay: [3H] uridine labeling of RNA in the presence of dactinomycin: HCV-RNA replication; assay type: cell-based, hepatitis C virus; conditions: 4 μg/ml dactinomycin, 16 hrs, clone 9-13
Experimental: as §1

## Cc1c2oc3c(C)ccc(C(=O)N[C@@H]4C(=O)N[C@H](C(C)C)C(=O)N5CCC[C@H]5C(=O)N(C)CC(=O)N(C)[C@@H](C(C)C)C(=O)O[C@@H]4C)c3nc-2c(C(=O)N[C@@H]2C(=O)N[C@H](C(C)C)C(=O)N3CCC[C@H]3C(=O)N(C)CC(=O)N(C)[C@@H](C(C)C)C(=O)O[C@@H]2C)c(N)c1=O [dactinomycin] (I: T[dV]P[Sar][NMeV] / II: T[dV]P[Sar][NMeV]; ester I:1-I:C, II:1-II:C; linker I:N-II:N via Actinocin(9to1))
[1]
  synthesis of cellular RNA: inhibited
[2]
  influence on the replication of the HCV RNA: no influence
